In BindingDB's records for doi:10.1016/j.bmc.2008.07.062 (Astellas Pharma, 2008):

Assays:
[1] = Antagonist activity at human CCR4 receptor assessed as inhibition of CCL22-induced chemotaxis by bioluminescent assay
[2] = Antagonist activity at mouse CCR4 receptor assessed as inhibition of CCL22-induced chemotaxis by bioluminescent assay

IC50 [1]	IC50 [2]	SMILES
280 nM		COc1cc2nc(N3CCC(N(C)CCCO)CC3)nc(Nc3ccc(Cl)cc3)c2cc1OC [3-[(1-{4-[(4-Chlorophenyl)amino]-6,7-dimethoxyquinazolin-2-yl}piperidin-4-yl)(methyl)amino]propan-1-ol]
360 nM		COc1cc2nc(N3CCC(N(C)CCCCO)CC3)nc(Nc3ccc(Cl)cc3)c2cc1OC [4-[(1-{4-[(4-Chlorophenyl)amino]-6,7-dimethoxyquinazolin-2-yl}piperidin-4-yl)(methyl)amino]butan-1-ol]
69 nM	820 nM	COc1cc2nc(N3CCC(N4CCCC4)CC3)nc(Nc3ccc(F)c(F)c3)c2cc1OC [N-(3,4-Difluorophenyl)-6,7-dimethoxy-2-(4-pyrrolidin-1-ylpiperidin-1-yl)quinazolin-4-amine]
320 nM	710 nM	COc1cc2nc(N3CCC(N4CCCC4)CC3)nc(Nc3ccc(F)cc3)c2cc1OC [N-(4-Fluorophenyl)-6,7-dimethoxy-2-(4-pyrrolidin-1-ylpiperidin-1-yl)quinazolin-4-amine]
